The values below come from patent publication US7932262B2 (Novartis AG, priority 2006, dated 2011).

In test [1] the target is T1, PDK1 kinase (Homo sapiens, UniProt O15530).
T1 sequence (O15530 1-556): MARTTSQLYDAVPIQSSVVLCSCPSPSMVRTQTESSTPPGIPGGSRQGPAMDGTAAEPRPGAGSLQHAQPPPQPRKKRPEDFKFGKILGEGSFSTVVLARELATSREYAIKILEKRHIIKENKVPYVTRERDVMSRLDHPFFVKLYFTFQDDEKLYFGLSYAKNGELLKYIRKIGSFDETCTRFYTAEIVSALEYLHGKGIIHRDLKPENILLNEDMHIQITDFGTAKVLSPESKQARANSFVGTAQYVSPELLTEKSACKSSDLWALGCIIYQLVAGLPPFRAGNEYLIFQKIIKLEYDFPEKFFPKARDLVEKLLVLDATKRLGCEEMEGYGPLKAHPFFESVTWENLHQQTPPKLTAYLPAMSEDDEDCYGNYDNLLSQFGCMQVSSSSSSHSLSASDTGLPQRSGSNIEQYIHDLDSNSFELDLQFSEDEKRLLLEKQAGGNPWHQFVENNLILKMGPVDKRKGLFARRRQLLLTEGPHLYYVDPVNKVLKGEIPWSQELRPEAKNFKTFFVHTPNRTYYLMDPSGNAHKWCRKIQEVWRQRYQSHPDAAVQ
As to the kind of experiment: PDK1 Kinase Alpha Screen Assay. The test is classed as biochemical. A digest of the protocol: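 AlphaScreen readout: phospho-peptide captured by phospho-(Ser/Thr) PKA substrate antibody (0.3 mg/ml) on protein A acceptor beads, biotin peptide on streptavidin donor beads (25 μg/ml each), overnight at room temperature. Kinase step used 50 nM PDK1-4 peptide, 10 uM ATP, 3-18 hours.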

Test [2] has as its system A2780 cells. As to the kind of experiment: Cell Proliferation Assay (Cell Titer Glo), A2780. The test is classed as cell-based. The conditions noted are these: Homo sapiens, read-out: CPEC50 A2780. A digest of the protocol: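 Following a 3-day compound exposure (37° C., 5% CO2) of A2780 or PC3MM cells plated at 1000 per well, viability was measured by Cell Titer Glo luminescence in fresh medium, read 10 min after reagent addition.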
(In general: In ATP-based viability assays light output follows the ATP content of the culture.)

Test [3] deals with PC3MM cells. The test can be described thus: Cell Proliferation Assay (Cell Titer Glo), PC3MM. The test is classed as cell-based. Conditions: read-out: CPEC50 PC3MM. As for the experimental part:
IV. Cell Proliferation Assay Protocol:
A2780, PC-3, or PC3MM cells were seeded at 1000 cells/well in 100 μL/well (10.000 cells/mL) growth media in 96-well plates. Cells were allowed to adhere to the bottom of plates for 3-5 hours in a 37° C. 5% CO2 incubator. Compounds were dissolved in DMSO and then transferred to the cell plates. The cells were incubated with the compounds for 3 days in a 37° C. 5% CO2 incubator. The growth medium containing the compounds was then removed from the cells and fresh medium was added, followed by 100 μL of Cell Titer Glo assay reagent (Promega). This mixture was shaken for 1 minute and then incubated without shaking for 10 minutes. Activity determinations for the compounds were made by detection on a Trilux Instrument.

[4] abbreviates: PDK1 Kinase Alpha Screen Assay, read-out: PDK1 IC50.
Setting [5] is: Cell Proliferation Assay, A2780.
[6] abbreviates: Cell Proliferation Assay, PC3MM.
Where [7] appears, read: cell proliferation, A2780 cells.
[8] abbreviates: cell proliferation, PC3MM cells.

Each structure is given as a SMILES string. Like-named read-outs stand apart in the source and are kept apart here.

Take `c1cc(N2CCOCC2)ccc1Nc1ncc2cc(-c3cnoc3)c(OC3CCNCC3)cc2n1` [Compound 652, 6-(isoxazol-4-yl)-N-(4-morpholinophenyl)-7-(piperidin-4-yloxy)quinazolin-2-amine]: the IC50 in test [1] (setting [4]) was less than 5 µM. Moreover, the EC50 in test [2] (setting [5]) and in test [3] (setting [6]) was less than 5 µM each time.
`CN1CCC(Oc2cc3nc(Nc4ccc(N5CCOCC5)cc4)ncc3cc2-c2nccs2)CC1` [Compound 653, 7-(1-methylpiperidin-4-yloxy)-N-(4-morpholinophenyl)-6-(thiazol-2-yl)quinazolin-2-amine]: the IC50 in test [1] (setting [4]) is less than 5 µM. In addition, the EC50 in test [2] (setting [5]) and in test [3] (setting [6]) was less than 5 µM each time.
Consider `COC(=O)Nc1cc(CN2CCOCC2)cc(Nc2ncc3ccc(-c4cnn(CCC(C)C)c4)c(OC)c3n2)c1` [Compound 716, methyl 3-(7-(1-isopentyl-1H-pyrazol-4-yl)-8-methoxyquinazolin-2-ylamino)-5-(morpholinomethyl)phenyl carbamate], for which the IC50 in test [1] (setting [4]) was less than 5 µM. In test [3] (Cell Proliferation Assay, PC3MM cells), the EC50 is less than 5 µM.
For the compound `NC(=O)c1ccc(Nc2ncc3cccc(OC4CCNCC4)c3n2)cc1` [Compound 717, 4-(8-(piperidin-4-yloxy)quinazolin-2-ylamino)benzamide], the IC50 in test [1] (setting [4]) was less than 5 µM. Besides, the EC50 in test [2] (setting [7]) and in test [3] (setting [8]) was less than 5 µM in each case.
On to `NS(=O)(=O)c1ccc(Nc2ncc3cccc(O[C@H]4CCNC4)c3n2)cc1` [Compound 721, (S)-4-(8-(pyrrolidin-3-yloxy)quinazolin-2-ylamino)benzenesulfonamide], for which, in test [1] (setting [4]), the IC50 is less than 5 µM. Besides, the EC50 in test [2] (setting [7]) and in test [3] (setting [8]) was less than 5 µM each time.
As to `NS(=O)(=O)c1ccc(Nc2ncc3cccc(OC4CN5CCC4CC5)c3n2)cc1` (stereo not drawn) [Compound 722, 4-(8-(quinuclidin-3-yloxy)quinazolin-2-ylamino)benzenesulfonamide], the IC50 in test [1] (setting [4]) is less than 5 µM. Besides, the EC50 in test [2] (setting [7]) and in test [3] (setting [8]) was less than 5 µM in each case.
With `CN1CC[C@H](Oc2cccc3cnc(Nc4ccc(S(N)(=O)=O)cc4)nc23)C1` [Compound 723, (S)-4-(8-(1-methylpyrrolidin-3-yloxy)quinazolin-2-ylamino)benzenesulfonamide], the IC50 in test [1] (setting [4]) is less than 5 µM. Also, the EC50 in test [2] (setting [7]) and in test [3] (setting [8]) was less than 5 µM each time.
For `CN1CCC(Oc2cccc3cnc(Nc4ccc(S(N)(=O)=O)cc4)nc23)CC1` [Compound 724, 4-(8-(1-methylpiperidin-4-yloxy)quinazolin-2-ylamino)benzenesulfonamide], the IC50 in test [1] (setting [4]) is less than 5 µM. In addition, the EC50 in test [2] (setting [7]) and in test [3] (setting [8]) was less than 5 µM each time.
As to `NS(=O)(=O)c1ccc(Nc2ncc3cccc(O[C@@H]4CCNC4)c3n2)cc1` [Compound 726, (R)-4-(8-(pyrrolidin-3-yloxy)quinazolin-2-ylamino)benzenesulfonamide], the IC50 in test [1] (setting [4]) was less than 5 µM. Moreover, the EC50 in test [2] (setting [7]) and in test [3] (setting [8]) was less than 5 µM each time.
On to `CN1CC[C@@H](Oc2cccc3cnc(Nc4ccc(S(N)(=O)=O)cc4)nc23)C1` [Compound 727, (R)-4-(8-(1-methylpyrrolidin-3-yloxy)quinazolin-2-ylamino)benzenesulfonamide], for which, in test [1] (setting [4]), the IC50 was less than 5 µM. Also, the EC50 in test [2] (setting [7]) and in test [3] (setting [8]) was less than 5 µM each time.
For the compound `CC(=O)c1ccc(-c2cccc3cnc(Nc4ccc(S(N)(=O)=O)cc4)nc23)cc1` [Compound 731, 4-(8-(4-acetylphenyl)quinazolin-2-ylamino)benzenesulfonamide], the IC50 in test [1] (setting [4]) is less than 5 µM. Further, the EC50 in test [2] (setting [7]) was 5 to 10 µM; in test [3] (setting [8]) it was less than 5 µM.
`NS(=O)(=O)c1ccc(Nc2ncc3cccc(-c4ccc(-c5ccn[nH]5)cc4)c3n2)cc1` [Compound 732, 4-(8-(4-(1H-pyrazol-5-yl)phenyl)quinazolin-2-ylamino)benzenesulfonamide]: the IC50 in test [1] (setting [4]) was less than 5 µM. Further, the EC50 in test [2] (setting [7]) and in test [3] (setting [8]) was less than 5 µM in each case.
Turning to `CN1CCCC(Oc2cccc3cnc(Nc4ccc(S(N)(=O)=O)cc4)nc23)C1` (stereo not drawn) [Compound 733, 4-(8-(1-methylpiperidin-3-yloxy)quinazolin-2-ylamino)benzenesulfonamide], the IC50 in test [1] (setting [4]) is less than 5 µM. For the same compound, the EC50 in test [2] (setting [7]) and in test [3] (setting [8]) was less than 5 µM in each case.
For the compound `NC(=O)c1cccc(-c2cccc3cnc(Nc4ccc(S(N)(=O)=O)cc4)nc23)c1` [Compound 734, 3-(2-(4-sulfamoylphenylamino)quinazolin-8-yl)benzamide], in test [1] (setting [4]), the IC50 is less than 5 µM. For the same compound, the EC50 in test [2] (setting [7]) and in test [3] (setting [8]) was less than 5 µM in each case.
For `CS(=O)(=O)c1cccc(-c2cccc3cnc(Nc4ccc(S(N)(=O)=O)cc4)nc23)c1` [Compound 735, 4-(8-(3-(methysulfonyl)phenyl)quinazolin-2-ylamino)benzenesulfonamide], the IC50 in test [1] (setting [4]) is less than 5 µM. Besides, the EC50 in test [2] (setting [7]) and in test [3] (setting [8]) was less than 5 µM throughout.
As to `CS(=O)(=O)Nc1cccc(-c2cccc3cnc(Nc4ccc(S(N)(=O)=O)cc4)nc23)c1` [Compound 736, 4-(8-(3-(methylsulfonamido)phenyl)quinazolin-2-ylamino)benzenesulfonamide], the IC50 in test [1] (setting [4]) is less than 5 µM. In addition, the EC50 in test [2] (setting [7]) and in test [3] (setting [8]) was less than 5 µM throughout.
As to `CC(=O)Nc1cccc(-c2cccc3cnc(Nc4ccc(S(N)(=O)=O)cc4)nc23)c1` [Compound 737, N-(3-(2-(4-sulfamoylphenylamino)quinazolin-8-yl)phenyl)acetamide], the IC50 in test [1] (setting [4]) was less than 5 µM. In addition, the EC50 in test [2] (setting [7]) and in test [3] (setting [8]) was less than 5 µM each time.
Consider `NS(=O)(=O)c1ccc(Nc2ncc3cccc(-c4cccc(S(N)(=O)=O)c4)c3n2)cc1` [Compound 738, 3-(2-(4-sulfamoylphenylamino)quinazolin-8-yl)benzenesulfonamide], for which the IC50 in test [1] (setting [4]) is less than 5 µM. The EC50 in test [2] (setting [7]) and in test [3] (setting [8]) was less than 5 µM throughout.
On to `NS(=O)(=O)c1ccc(Nc2ncc3cccc(-c4ccc5c(c4)OCO5)c3n2)cc1` [Compound 739, 4-(8-(benzo[d][1,3]dioxol-5-yl)quinazolin-2-ylamino)benzenesulfonamide], for which, in test [1] (setting [4]), the IC50 is less than 5 µM. Besides, the EC50 in test [2] (setting [7]) and in test [3] (setting [8]) was less than 5 µM throughout.
As for `NC(=O)c1ccc(-c2cccc3cnc(Nc4ccc(S(N)(=O)=O)cc4)nc23)cc1` [Compound 740, 4-(2-(4-sulfamoylphenylamino)quinazolin-8-yl)benzamide], the IC50 in test [1] (setting [4]) is less than 5 µM. The EC50 is 5 to 10 µM in test [2] (setting [7]) and less than 5 µM in test [3] (setting [8]).
For `NC(=O)c1ccccc1-c1ccc2cnc(Nc3ccc(S(N)(=O)=O)cc3)nc2c1` [Compound 784, 2-(2-(4-sulfamoylphenylamino)quinazolin-7-yl)benzamide], the IC50 in test [1] (setting [4]) was less than 5 µM. In test [3] (setting [8]), the EC50 is less than 5 µM.
Regarding `CC(=O)Nc1cccc(-c2ccc3cnc(Nc4ccc(S(N)(=O)=O)cc4)nc3c2)c1` [Compound 785, N-(3-(2-(4-sulfamoylphenylamino)quinazolin-7-yl)phenyl)acetamide], in test [1] (setting [4]), the IC50 was 5 to 10 µM. Further, the EC50 in test [3] (setting [8]) was 5 to 10 µM.
For the compound `CS(=O)(=O)c1cccc(-c2ccc3cnc(Nc4ccc(S(N)(=O)=O)cc4)nc3c2)c1` [Compound 787, 4-(7-(3-(methylsulfonyl)phenyl)quinazolin-2-ylamino)benzenesulfonamide], in test [1] (setting [4]), the IC50 is less than 5 µM. The EC50 in test [3] (setting [8]) is less than 5 µM.
Turning to `CS(=O)(=O)Nc1cccc(-c2ccc3cnc(Nc4ccc(S(N)(=O)=O)cc4)nc3c2)c1` [Compound 788, 4-(7-(3-(methylsulfonamido)phenyl)quinazolin-2-ylamino)benzenesulfonamide], the IC50 in test [1] (setting [4]) was in the range of 10 to 25 µM. For the same compound, in test [3] (setting [8]), the EC50 was 10 to 25 µM.
With `COC(=O)Nc1cc(CN2CCOCC2)cc(Nc2ncc3ccc(-c4cnn(CCC(C)C)c4)c(OC)c3n2)c1` [Compound 1042, methyl 3-(7-(1-isopentyl-1H-pyrazol-4-yl)-8-methoxyquinazolin-2-ylamino)-5-(morpholinomethyl)phenylcarbamate], in test [1] (head of the second part of Table 4: BV11261, read-out: PDK1 BV11261), the IC50 was less than 5 µM. Besides, in test [3] (PC3MM cells), the EC50 was less than 5 µM.
